Experimental data from ChEMBL document CHEMBL4507280 (2021).

Assays:
[1] = test system: Tyrosine-protein kinase ABL1 (Homo sapiens), P00519 [T315I]; conditions: Compound concentration 1000.0 nM
[2] = biological target: Mitogen-activated protein kinase kinase kinase 6 (Homo sapiens) (UniProt O95382); conditions: Compound concentration 1000.0 nM
[3] = biological target: Protein-tyrosine kinase 6 (Homo sapiens) (UniProt Q13882); conditions: Compound concentration 1000.0 nM
[4] = biological target: Calcium/calmodulin-dependent protein kinase type 1D (Homo sapiens) (UniProt Q8IU85); conditions: Compound concentration 1000.0 nM
[5] = biological target: Calcium/calmodulin-dependent protein kinase type II subunit delta (Homo sapiens) (UniProt Q13557); conditions: Compound concentration 1000.0 nM
Chain of Calcium/calmodulin-dependent protein kinase type II subunit delta (Homo sapiens) (Q13557 whole entry): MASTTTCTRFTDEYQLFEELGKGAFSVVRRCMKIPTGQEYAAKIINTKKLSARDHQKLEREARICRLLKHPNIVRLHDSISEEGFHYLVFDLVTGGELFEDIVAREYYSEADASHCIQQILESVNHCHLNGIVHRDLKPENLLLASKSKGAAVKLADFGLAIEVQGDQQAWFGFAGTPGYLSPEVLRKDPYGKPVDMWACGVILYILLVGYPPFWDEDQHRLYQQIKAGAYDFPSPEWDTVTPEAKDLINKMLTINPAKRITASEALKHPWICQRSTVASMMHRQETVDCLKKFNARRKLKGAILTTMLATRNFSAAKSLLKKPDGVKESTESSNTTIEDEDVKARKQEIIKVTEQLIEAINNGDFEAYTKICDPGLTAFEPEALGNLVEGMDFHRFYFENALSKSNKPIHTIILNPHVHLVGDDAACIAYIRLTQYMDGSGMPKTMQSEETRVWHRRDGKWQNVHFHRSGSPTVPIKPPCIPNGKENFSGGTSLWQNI

[6] = biological target: Serine/threonine-protein kinase Chk1 (Homo sapiens) (UniProt O14757); conditions: Compound concentration 1000.0 nM
[7] = biological target: Citron Rho-interacting kinase (Homo sapiens) (UniProt O14578); conditions: Compound concentration 1000.0 nM
[8] = biological target: Dual specificity protein kinase CLK1 (Homo sapiens) (UniProt P49759); conditions: Compound concentration 1000.0 nM
[9] = biological target: Casein kinase I isoform epsilon (Homo sapiens) (UniProt P49674); conditions: Compound concentration 1000.0 nM
[10] = biological target: Death-associated protein kinase 2 (Homo sapiens) (UniProt Q9UIK4); conditions: Compound concentration 1000.0 nM
Chain of Death-associated protein kinase 2 (Homo sapiens) (Q9UIK4 whole entry, looked up): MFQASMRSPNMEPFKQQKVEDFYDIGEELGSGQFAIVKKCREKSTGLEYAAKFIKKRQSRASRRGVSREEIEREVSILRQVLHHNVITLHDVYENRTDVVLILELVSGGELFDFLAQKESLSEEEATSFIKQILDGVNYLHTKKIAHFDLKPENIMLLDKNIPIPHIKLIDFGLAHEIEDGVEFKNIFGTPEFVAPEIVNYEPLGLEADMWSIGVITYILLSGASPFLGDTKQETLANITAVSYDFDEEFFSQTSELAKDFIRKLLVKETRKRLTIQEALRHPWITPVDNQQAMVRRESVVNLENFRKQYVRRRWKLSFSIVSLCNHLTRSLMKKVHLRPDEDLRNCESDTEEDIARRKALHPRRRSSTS

[11] = biological target: Ephrin type-A receptor 1 (Homo sapiens) (UniProt P21709); conditions: Compound concentration 1000.0 nM
[12] = biological target: Ephrin type-B receptor 4 (Homo sapiens) (UniProt P54760); conditions: Compound concentration 1000.0 nM
[13] = biological target: Mitogen-activated protein kinase 4 (Homo sapiens) (UniProt P31152); conditions: Compound concentration 1000.0 nM
[14] = test system: Receptor-type tyrosine-protein kinase FLT3 (Homo sapiens), P36888 [UNDEFINED MUTATION]; conditions: Compound concentration 1000.0 nM
[15] = test system: Receptor-type tyrosine-protein kinase FLT3 (Homo sapiens), P36888 [R834Q]; conditions: Compound concentration 1000.0 nM
[16] = biological target: G protein-coupled receptor kinase 4 (Homo sapiens) (UniProt P32298); conditions: Compound concentration 1000.0 nM
[17] = biological target: Homeodomain-interacting protein kinase 2 (Homo sapiens) (UniProt Q9H2X6); conditions: Compound concentration 1000.0 nM
Chain of Homeodomain-interacting protein kinase 2 (Homo sapiens) (Q9H2X6 whole entry, looked up): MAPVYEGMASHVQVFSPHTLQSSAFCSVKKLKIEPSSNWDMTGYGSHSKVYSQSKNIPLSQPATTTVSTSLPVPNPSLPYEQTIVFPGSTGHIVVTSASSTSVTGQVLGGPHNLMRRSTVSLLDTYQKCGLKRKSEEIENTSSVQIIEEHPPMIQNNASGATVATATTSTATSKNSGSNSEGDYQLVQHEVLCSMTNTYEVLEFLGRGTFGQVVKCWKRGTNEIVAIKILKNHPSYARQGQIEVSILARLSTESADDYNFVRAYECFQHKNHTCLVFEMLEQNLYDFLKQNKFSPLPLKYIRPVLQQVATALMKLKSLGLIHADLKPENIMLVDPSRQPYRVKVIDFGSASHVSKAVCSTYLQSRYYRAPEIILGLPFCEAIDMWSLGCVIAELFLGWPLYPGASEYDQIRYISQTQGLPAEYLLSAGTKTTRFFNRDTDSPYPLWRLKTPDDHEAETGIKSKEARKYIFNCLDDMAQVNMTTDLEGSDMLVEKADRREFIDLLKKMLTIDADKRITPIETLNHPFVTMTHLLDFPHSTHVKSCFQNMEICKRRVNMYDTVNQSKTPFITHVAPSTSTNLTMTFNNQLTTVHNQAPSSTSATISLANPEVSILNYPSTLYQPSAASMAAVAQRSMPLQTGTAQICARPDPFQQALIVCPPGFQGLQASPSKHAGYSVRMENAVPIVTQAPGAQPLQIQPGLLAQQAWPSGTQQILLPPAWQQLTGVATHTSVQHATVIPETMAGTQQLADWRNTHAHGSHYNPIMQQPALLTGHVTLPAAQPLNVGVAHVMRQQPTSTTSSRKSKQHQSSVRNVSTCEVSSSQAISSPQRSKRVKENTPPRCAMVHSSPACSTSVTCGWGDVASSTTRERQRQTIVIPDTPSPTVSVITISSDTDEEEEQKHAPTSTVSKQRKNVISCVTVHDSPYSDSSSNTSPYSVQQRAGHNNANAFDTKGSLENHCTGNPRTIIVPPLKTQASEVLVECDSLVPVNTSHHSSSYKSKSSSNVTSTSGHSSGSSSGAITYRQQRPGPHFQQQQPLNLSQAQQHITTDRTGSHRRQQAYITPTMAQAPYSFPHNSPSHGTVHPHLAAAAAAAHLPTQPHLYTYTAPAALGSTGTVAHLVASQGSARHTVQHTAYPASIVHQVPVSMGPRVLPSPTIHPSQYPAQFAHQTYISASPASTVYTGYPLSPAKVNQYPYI

[18] = biological target: Homeodomain-interacting protein kinase 4 (Homo sapiens) (UniProt Q8NE63); conditions: Compound concentration 1000.0 nM
[19] = biological target: Tyrosine-protein kinase JAK3 (Homo sapiens) (UniProt P52333); conditions: Compound concentration 1000.0 nM
[20] = test system: Mast/stem cell growth factor receptor Kit (Homo sapiens), P10721 [L576P]; conditions: Compound concentration 1000.0 nM
[21] = biological target: MAP/microtubule affinity-regulating kinase 4 (Homo sapiens) (UniProt Q96L34); conditions: Compound concentration 1000.0 nM
[22] = biological target: Muscle, skeletal receptor tyrosine-protein kinase (Homo sapiens) (UniProt O15146); conditions: Compound concentration 1000.0 nM
[23] = biological target: Serine/threonine-protein kinase Nek2 (Homo sapiens) (UniProt P51955); conditions: Compound concentration 1000.0 nM
Chain of Serine/threonine-protein kinase Nek2 (Homo sapiens) (P51955 whole entry): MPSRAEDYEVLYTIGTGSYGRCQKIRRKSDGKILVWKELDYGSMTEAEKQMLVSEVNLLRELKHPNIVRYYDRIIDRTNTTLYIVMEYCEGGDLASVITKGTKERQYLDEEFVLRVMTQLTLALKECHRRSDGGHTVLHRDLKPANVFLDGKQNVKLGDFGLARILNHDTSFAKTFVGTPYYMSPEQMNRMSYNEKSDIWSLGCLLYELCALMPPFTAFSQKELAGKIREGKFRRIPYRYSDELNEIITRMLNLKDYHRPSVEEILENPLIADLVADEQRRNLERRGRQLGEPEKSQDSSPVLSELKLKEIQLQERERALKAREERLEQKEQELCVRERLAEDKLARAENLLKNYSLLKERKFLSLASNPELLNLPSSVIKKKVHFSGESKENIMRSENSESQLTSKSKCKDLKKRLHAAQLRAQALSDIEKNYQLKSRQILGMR

[24] = biological target: Serine/threonine-protein kinase NLK (Homo sapiens) (UniProt Q9UBE8); conditions: Compound concentration 1000.0 nM
[25] = test system: Phosphatidylinositol 4,5-bisphosphate 3-kinase catalytic subunit alpha isoform (Homo sapiens), P42336 [E545K]; conditions: Compound concentration 1000.0 nM
[26] = test system: Phosphatidylinositol 4,5-bisphosphate 3-kinase catalytic subunit alpha isoform (Homo sapiens), P42336 [I800L]; conditions: Compound concentration 1000.0 nM
Chain of Phosphatidylinositol 4,5-bisphosphate 3-kinase catalytic subunit alpha isoform (Homo sapiens), P42336 [I800L] (P42336 whole entry I800L, canonical isoform): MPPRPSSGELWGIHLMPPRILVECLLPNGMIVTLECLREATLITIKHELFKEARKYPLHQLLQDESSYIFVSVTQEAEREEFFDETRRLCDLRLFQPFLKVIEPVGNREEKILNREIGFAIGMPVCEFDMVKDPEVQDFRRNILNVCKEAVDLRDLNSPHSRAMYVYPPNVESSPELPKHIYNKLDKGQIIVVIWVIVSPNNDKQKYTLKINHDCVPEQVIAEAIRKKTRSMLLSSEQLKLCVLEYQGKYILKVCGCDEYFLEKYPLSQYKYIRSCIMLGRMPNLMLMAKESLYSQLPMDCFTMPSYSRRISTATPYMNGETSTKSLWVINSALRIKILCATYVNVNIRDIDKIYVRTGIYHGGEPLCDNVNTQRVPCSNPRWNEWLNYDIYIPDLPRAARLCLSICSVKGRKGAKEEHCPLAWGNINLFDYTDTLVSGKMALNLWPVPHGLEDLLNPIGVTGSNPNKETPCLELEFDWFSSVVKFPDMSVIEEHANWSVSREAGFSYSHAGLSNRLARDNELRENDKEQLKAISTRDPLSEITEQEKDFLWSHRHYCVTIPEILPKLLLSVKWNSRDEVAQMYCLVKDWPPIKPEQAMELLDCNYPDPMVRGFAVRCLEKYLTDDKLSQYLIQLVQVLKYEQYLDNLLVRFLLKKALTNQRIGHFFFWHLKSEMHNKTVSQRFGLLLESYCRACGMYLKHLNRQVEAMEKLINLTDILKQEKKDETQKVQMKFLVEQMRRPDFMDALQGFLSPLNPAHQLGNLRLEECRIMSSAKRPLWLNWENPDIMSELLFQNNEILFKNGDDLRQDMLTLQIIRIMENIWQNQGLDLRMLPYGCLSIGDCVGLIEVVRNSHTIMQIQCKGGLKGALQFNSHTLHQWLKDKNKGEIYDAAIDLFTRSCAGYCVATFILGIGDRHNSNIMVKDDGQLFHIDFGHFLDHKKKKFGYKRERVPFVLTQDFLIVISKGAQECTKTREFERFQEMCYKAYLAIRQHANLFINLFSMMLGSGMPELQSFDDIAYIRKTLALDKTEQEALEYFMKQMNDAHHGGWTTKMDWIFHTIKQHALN

[27] = test system: Phosphatidylinositol 4,5-bisphosphate 3-kinase catalytic subunit alpha isoform (Homo sapiens), P42336 [M1043I]; conditions: Compound concentration 1000.0 nM
[28] = biological target: Phosphatidylinositol 4-kinase beta (Homo sapiens) (UniProt Q9UBF8); conditions: Compound concentration 1000.0 nM
[29] = biological target: Serine/threonine-protein kinase pim-3 (Homo sapiens) (UniProt Q86V86); conditions: Compound concentration 1000.0 nM
[30] = biological target: Serine/threonine-protein kinase N1 (Homo sapiens) (UniProt Q16512); conditions: Compound concentration 1000.0 nM
Chain of Serine/threonine-protein kinase N1 (Homo sapiens) (Q16512 2-942 limits assumed): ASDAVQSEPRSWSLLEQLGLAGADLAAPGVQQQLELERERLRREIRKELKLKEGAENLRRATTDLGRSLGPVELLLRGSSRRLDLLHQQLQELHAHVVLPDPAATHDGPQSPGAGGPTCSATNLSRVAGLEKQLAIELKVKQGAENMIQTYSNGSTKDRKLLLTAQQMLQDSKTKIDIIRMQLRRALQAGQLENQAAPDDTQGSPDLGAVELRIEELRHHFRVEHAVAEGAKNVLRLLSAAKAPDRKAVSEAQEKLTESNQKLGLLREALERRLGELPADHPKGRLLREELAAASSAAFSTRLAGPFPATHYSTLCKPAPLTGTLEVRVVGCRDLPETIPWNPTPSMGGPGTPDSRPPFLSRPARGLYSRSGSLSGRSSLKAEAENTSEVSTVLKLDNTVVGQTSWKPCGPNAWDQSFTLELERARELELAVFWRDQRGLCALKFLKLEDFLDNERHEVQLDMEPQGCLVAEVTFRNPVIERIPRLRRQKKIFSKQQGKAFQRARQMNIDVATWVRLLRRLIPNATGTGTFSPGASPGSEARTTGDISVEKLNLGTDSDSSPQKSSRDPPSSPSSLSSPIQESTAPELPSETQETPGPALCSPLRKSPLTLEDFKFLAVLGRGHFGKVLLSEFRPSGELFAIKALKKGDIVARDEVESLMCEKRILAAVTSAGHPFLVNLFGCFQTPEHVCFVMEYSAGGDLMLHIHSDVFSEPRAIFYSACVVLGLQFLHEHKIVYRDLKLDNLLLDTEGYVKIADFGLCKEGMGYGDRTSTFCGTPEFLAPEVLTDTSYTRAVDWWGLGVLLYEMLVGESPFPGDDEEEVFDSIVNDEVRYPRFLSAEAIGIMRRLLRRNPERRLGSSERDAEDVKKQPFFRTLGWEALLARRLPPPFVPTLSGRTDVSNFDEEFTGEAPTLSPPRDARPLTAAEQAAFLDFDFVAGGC

[31] = biological target: Serine/threonine-protein kinase PknB (Mycobacterium tuberculosis) (UniProt P9WI81); conditions: Compound concentration 1000.0 nM
[32] = biological target: Protein kinase C epsilon type (Homo sapiens) (UniProt Q02156); conditions: Compound concentration 1000.0 nM
[33] = test system: Proto-oncogene tyrosine-protein kinase receptor Ret (Homo sapiens), P07949 [M918T]; conditions: Compound concentration 1000.0 nM
[34] = biological target: Proto-oncogene tyrosine-protein kinase ROS (Homo sapiens) (UniProt P08922); conditions: Compound concentration 1000.0 nM
[35] = biological target: Ribosomal protein S6 kinase alpha-4 (Homo sapiens) (UniProt O75676); conditions: Compound concentration 1000.0 nM
[36] = biological target: Ribosomal protein S6 kinase alpha-6 (Homo sapiens) (UniProt Q9UK32); conditions: Compound concentration 1000.0 nM
[37] = biological target: Serine/threonine-protein kinase 33 (Homo sapiens) (UniProt Q9BYT3); conditions: Compound concentration 1000.0 nM
[38] = biological target: Serine/threonine-protein kinase 36 (Homo sapiens) (UniProt Q9NRP7); conditions: Compound concentration 1000.0 nM
[39] = biological target: Angiopoietin-1 receptor (Homo sapiens) (UniProt Q02763); conditions: Compound concentration 1000.0 nM
[40] = biological target: Serine/threonine-protein kinase TNNI3K (Homo sapiens) (UniProt Q59H18); conditions: Compound concentration 1000.0 nM
[41] = biological target: Serine/threonine-protein kinase 32C (Homo sapiens) (UniProt Q86UX6); conditions: Compound concentration 1000.0 nM
Chain of Serine/threonine-protein kinase 32C (Homo sapiens) (Q86UX6 whole entry): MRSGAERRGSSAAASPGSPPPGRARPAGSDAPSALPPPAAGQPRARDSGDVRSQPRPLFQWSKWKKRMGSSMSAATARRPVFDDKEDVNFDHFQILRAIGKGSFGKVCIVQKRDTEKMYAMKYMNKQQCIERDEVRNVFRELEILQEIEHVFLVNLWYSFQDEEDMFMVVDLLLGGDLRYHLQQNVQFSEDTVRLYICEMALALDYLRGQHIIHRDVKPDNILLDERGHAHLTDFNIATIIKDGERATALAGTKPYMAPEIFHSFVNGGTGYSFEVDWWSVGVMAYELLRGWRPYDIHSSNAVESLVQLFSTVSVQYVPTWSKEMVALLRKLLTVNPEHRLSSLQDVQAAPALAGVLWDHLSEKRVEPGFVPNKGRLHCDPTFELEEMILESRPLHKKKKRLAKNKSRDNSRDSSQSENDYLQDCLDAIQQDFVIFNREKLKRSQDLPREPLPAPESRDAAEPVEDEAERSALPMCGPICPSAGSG

[42] = biological target: 5-hydroxytryptamine receptor 2B (Homo sapiens) (UniProt P41595); conditions: Compound concentration 10.0 uM
[43] = biological target: 5-hydroxytryptamine receptor 2C (Homo sapiens) (UniProt P28335); conditions: Compound concentration 10.0 uM
[44] = biological target: Sodium-dependent serotonin transporter (Homo sapiens) (UniProt P31645); conditions: Compound concentration 10.0 uM
[45] = biological target: Alpha-2C adrenergic receptor (Homo sapiens) (UniProt P18825); conditions: Compound concentration 10.0 uM

CCC(=O)N[C@@H]1CC[C@H](C(=O)N(C)c2ccc(-c3nc4ccccc4o3)cc2)C1 [BI 99990]
inactive: residual activity [1] 79% | residual activity [2] 75% | residual activity [3] 90% | residual activity [4] 100% | residual activity [5] 100% | residual activity [6] 100% | residual activity [7] 93% | residual activity [8] 100% | residual activity [9] 100% | residual activity [10] 100% | residual activity [11] 87% | residual activity [12] 100% | residual activity [13] 100% | residual activity [14] 100% | residual activity [15] 100% | residual activity [16] 100% | residual activity [17] 100% | residual activity [18] 100% | residual activity [19] 98% | residual activity [20] 100% | residual activity [21] 82% | residual activity [22] 100% | residual activity [23] 100% | residual activity [24] 100% | residual activity [25] 75% | residual activity [26] 100% | residual activity [27] 100% | residual activity [28] 100% | residual activity [29] 96% | residual activity [30] 84% | residual activity [31] 78% | residual activity [32] 93% | residual activity [33] 100% | residual activity [34] 100% | residual activity [35] 100% | residual activity [36] 84% | residual activity [37] 100% | residual activity [38] 82% | residual activity [39] 82% | residual activity [40] 99% | residual activity [41] 73% | inhibition [42] 19.1% | inhibition [43] 5.92% | inhibition [44] 20.2% | inhibition [45] -2.55%

CCC(=O)N[C@H]1CC[C@@H](C(=O)N(C)c2ccc(-c3nc4ccccc4o3)cc2)C1 [BI 99179]
inactive: residual activity [1] 86% | residual activity [2] 76% | residual activity [3] 100% | residual activity [4] 100% | residual activity [5] 91% | residual activity [6] 100% | residual activity [7] 99% | residual activity [8] 93% | residual activity [9] 93% | residual activity [10] 100% | residual activity [11] 100% | residual activity [12] 73% | residual activity [13] 100% | residual activity [14] 91% | residual activity [15] 100% | residual activity [16] 100% | residual activity [17] 79% | residual activity [18] 100% | residual activity [19] 100% | residual activity [20] 61% | residual activity [21] 100% | residual activity [22] 100% | residual activity [23] 100% | residual activity [24] 87% | residual activity [25] 74% | residual activity [26] 63% | residual activity [27] 100% | residual activity [28] 77% | residual activity [29] 100% | residual activity [30] 83% | residual activity [31] 86% | residual activity [32] 90% | residual activity [33] 100% | residual activity [34] 93% | residual activity [35] 100% | residual activity [36] 82% | residual activity [37] 100% | residual activity [38] 100% | residual activity [39] 85% | residual activity [40] 100% | residual activity [41] 94% | inhibition [42] 4.55% | inhibition [43] 8.87% | inhibition [44] 32.8% | inhibition [45] -5.31%
